Source: patent US6677141B2, “Edible compositions of Bacillus subtilis natto cells containing water-soluble vitamin K” (Honda Trading Corporation, priority 1998, dated 2004)

Experiments:
[1] = MK-7 level in plasma after oral ingestion by healthy adults (HPLC); format: in vivo, human (healthy adults)
Procedure: The measurement of the amounts of MK-7, MK-4, and vitamin K1 by the high-performance liquid chromatography (HPLC) makes use of the phenomenon that vitamin K is reduced by a platinum-alumina catalyst into a hydroquinone compound and made to form a fluorescent substance. To be more specific, this measurement is carried out under the following conditions.
Then, five healthy adults were each caused to ingest 1 g of the dry cells at 10 o'clock every morning. After the elapse of a prescribed interval, blood was collected from each of the healthy adults and was tested for MK-7 level in the plasma. The time-course changes of MK-7 level in the plasma were investigated.
Five healthy adults were each caused to ingest 1 g of dry cells (containing 1.8×10^10 live cells) of Nitto strain (made by Nitto Yakuhin Kogyo K.K. in Kyoto) at 10 o'clock every morning. Then, blood was collected from the adults along the course of time. The plasma was separated from the collected blood and tested for MK-7 level in the plasma in the same manner as in Example 1.
As a control, five healthy adults were caused to ingest purified MK-7 in place of the dry cells of Bacillus subtilis natto mentioned above. The plasma similarly obtained from each of the healthy adults was tested for MK-7 level in the plasma.
The cultured product thus obtained was washed with distilled water and then freeze-dried. Five healthy adults (A to E) were each caused to ingest an enteric capsule in which 1 g of freeze-dried product (containing 5×10^11 cells/g of dried product) was filled. In this case, the MK-7 content was determined by the Soxhlet-HPLC method method, to find to be 708.0 μg/g of dried product. At prescribed points, blood was collected from the adults along the course of time. The plasma MK-7 level was tested in the same manner as in Example 1.
Five healthy adults (21 to 63 years old, male) requested to abstain from breakfast were each made to ingest 1,000 μg of the water-soluble vitamin K derivative containing the water-soluble MK-7 derivative prepared in Example 9 at 10 o'clock in the morning. Blood was collected from the healthy adults along the course of time after the ingestion and measured for the level of the water-soluble MK-7 derivative in plasma. As a control, the experiment was repeated with the ingestion of 1,000 μg of purified MK-7 instead.

[2] = Photostability: amount of MK-7 on exposure to the light from a fluorescent lamp; format: physicochemical; conditions: room temperature
Procedure: This dry MK-7 was exposed to the light from a fluorescent lamp at room temperature for 5 hours. In this case, the amount of MK-7 was measured along the course of time in the same manner as in Example 6. The results are shown in FIG. 7 (indicated by empty circle (◯) marks).
The fat-soluble MK-7 thus prepared was dried to obtain a dry product of MK-7. This dry product of MK-7 was irradiated with the light from a fluorescent lamp at room temperature for 5 hours and then tested for the fat-soluble MK-7 content in the same manner as in Example 6. The results are shown in FIG. 7 (indicated by filled square (▪) marks).

[3] = oral, 1 g dry cells (about 1.8 × 10^10 cells/g) or about 51.0 μg purified MK-7, average ± SD, n = 5

## CC(C)=CCC/C(C)=C/CC/C(C)=C/CC/C(C)=C/CC/C(C)=C/CC/C(C)=C/CC/C(C)=C/CC1=C(C)C(=O)c2ccccc2C1=O [Purified MK-7, menaquinone-7]
[1]; Example 14, oral 1,000 μg
  Level in plasma on the 24th hour after the ingestion: 3.2 ± 2.3 ng/mL
[1]; before ingestion, oral, 1 g dry cells (about 1.8 × 10^10 cells/g) or about 51.0 μg purified MK-7, average ± standard deviation, n = 5
  Concentration of MK-7 in plasma (after the elapse of) 0 hour: 1.3 ± 1.1
[1]; [3]
  Concentration of MK-7 in plasma (after the elapse of) 4 hours: 11.2 ± 2.8
  Concentration of MK-7 in plasma (after the elapse of) 8 hours: 7.3 ± 1.6
  Concentration of MK-7 in plasma (after the elapse of) 12 hours: 4.3 ± 1.0
  Concentration of MK-7 in plasma (after the elapse of) 24 hours: 2.2 ± 1.0
  Concentration of MK-7 in plasma (after the elapse of) 32 hours: 1.4 ± 0.7 ^┘
  Concentration of MK-7 in plasma (after the elapse of) 48 hours: 1.4 ± 0.9 ^┘

## CC(C)=CCC/C(C)=C/CC/C(C)=C/CC/C(C)=C/CC/C(C)=C/CC/C(C)=C/CC/C(C)=C/CC1=C(C)C(=O)c2ccccc2C1=O [fat-soluble MK-7]
[2]
  Exposure time to the fluorescent lamp after which the amount of MK-7 could not be measured: about 3 hours
